# According to ChEMBL document CHEMBL5385946, “Discovery of Dehydroabietylamine Derivatives as Antibacterial and Antifungal Agents” (J Nat Prod, 2024):
# The source made the active and inactive calls. The rule behind the calls is not given here.
# How the values were obtained:
# Rhizoctonia solani [1] = assay: Antifungal activity against Rhizoctonia solani at 50 ug/ml; assay type: functional
# Botrytis cinerea = assay: Antifungal activity against Botrytis cinerea at 50 ug/ml; assay type: functional
# Fusarium graminearum = assay: Antifungal activity against Gibberella zeae at 50 ug/ml; assay type: functional
# Alternaria solani = assay: Antifungal activity against Alternaria solani at 50 ug/ml; assay type: functional
# Escherichia coli = assay: Antibacterial activity against Escherichia coli CMCC(B)44102 by agar dilution method; assay type: functional
# Staphylococcus aureus = assay: Antibacterial activity against Staphylococcus aureus CMCC(B)26003 by agar dilution method; assay type: functional
# Rhizoctonia solani [2] = assay: Antifungal activity against Rhizoctonia solani assessed as protective effect at 400 ug/ml; assay type: functional; details: dose 400 µg/ml
# [3] = target: DNA topoisomerase II (Homo sapiens) (UniProt P11388+Q02880); assay: Inhibition of DNA topoisomerase II (unknown origin); assay type: protein assay
# Rhizoctonia solani [4] = assay: Antifungal activity against Rhizoctonia solani; assay type: functional, organism-based
# Rhizoctonia solani [5] = assay: Antifungal activity against Rhizoctonia solani assessed as appearance of irregular mycelium bending incubated for 36 hrs; assay type: functional, organism-based
# Rhizoctonia solani [6] = assay: Antifungal activity against Rhizoctonia solani assessed as appearance of wrinkling on mycelium surface incubated for 36 hrs; assay type: functional, organism-based
# Rhizoctonia solani [7] = assay: Antifungal activity against Rhizoctonia solani assessed as mycelium shrinkage incubated for 36 hrs; assay type: functional, organism-based
# Rhizoctonia solani [8] = assay: Antifungal activity against Rhizoctonia solani assessed as appearance of rough surface at 25 ug/ml by SEM analysis; assay type: functional, organism-based; details: dose 25.0 µg/ml
# Rhizoctonia solani [9] = assay: Antifungal activity against Rhizoctonia solani assessed as protective effect at 200 ug/ml; assay type: functional; details: dose 200 µg/ml
# Rhizoctonia solani [10] = assay: Antifungal activity against Rhizoctonia solani assessed as appearance of contracted surface at 25 ug/ml by SEM analysis; assay type: functional, organism-based; details: dose 25.0 µg/ml
# Rhizoctonia solani [11] = assay: Antifungal activity against Rhizoctonia solani assessed as appearance of shrunk hyphae at 25 ug/ml by SEM analysis; assay type: functional, organism-based; details: dose 25.0 µg/ml
# Rhizoctonia solani [12] = assay: Antifungal activity against Rhizoctonia solani assessed as appearance of twisted hyphae at 25 ug/ml by SEM analysis; assay type: functional, organism-based; details: dose 25.0 µg/ml
# Rhizoctonia solani [13] = assay: Antifungal activity against Rhizoctonia solani assessed as appearance of disordered mycelium winding incubated for 36 hrs; assay type: functional, organism-based
# Rhizoctonia solani [14] = assay: Antifungal activity against Rhizoctonia solani assessed as appearance of irregular intertwining at 25 ug/ml by SEM analysis; assay type: functional, organism-based; details: dose 25.0 µg/ml
# Rhizoctonia solani [15] = assay: Antifungal activity against Rhizoctonia solani assessed as hyphal surface secretion at 25 ug/ml by SEM analysis; assay type: functional, organism-based; details: dose 25.0 µg/ml
SMILES,inhibition at 50 µg/mL (Rhizoctonia solani [1]) [%],inhibition at 50 µg/mL (Botrytis cinerea) [%],inhibition at 50 µg/mL (Fusarium graminearum) [%],inhibition at 50 µg/mL (Alternaria solani) [%],MIC (Escherichia coli) [µg/mL],MIC (Staphylococcus aureus) [µg/mL],also measured
CCOC(=O)c1ccc(C[C@@]2(CNC(=O)c3ccccn3)CCC[C@]3(C)c4ccc(C(C)C)cc4CC[C@@H]23)cc1,0,0,14.1,1.2,32,> 128,–
OCC1=C[C@H](N[C@H]2C[C@H](CO)[C@@H](O[C@@H]3O[C@H](CO)[C@@H](O)[C@H](O)[C@H]3O)[C@H](O)[C@H]2O)[C@H](O)[C@@H](O)[C@@H]1O [VALIDAMYCIN],–,–,–,–,–,–,Activity (Rhizoctonia solani [2]): 83.1%
CC(C)c1ccc2c(c1)CC[C@H]1[C@@](CN)(Cc3ccc(C(C)(C)C)cc3)CCC[C@]21C,65,32.4,3.6,7.9,16,> 128,–
CC(C)c1ccc2c(c1)CC[C@H]1[C@@](CNC(=O)c3ccccn3)(Cc3ccccc3C#N)CCC[C@]21C,29.3,23.2,0,0,64,> 128,–
CC(C)c1ccc2c(c1)CC[C@H]1[C@@](CNC(=O)c3ccccn3)(Cc3ccc(C(C)(C)C)cc3)CCC[C@]21C,65.4,38.4,22.1,31.6,8,> 128,–
CC(C)c1ccc2c(c1)CC[C@H]1[C@@](CNC(=O)c3ccccn3)(Cc3ccc(C#N)cc3)CCC[C@]21C,28.5,30.6,0,5.5,64,> 128,–
CC(C)c1ccc2c(c1)CC[C@H]1[C@@](CNC(=O)c3ccccn3)(Cc3ccc(OC(F)(F)F)cc3)CCC[C@]21C,26.1,0.9,1.6,0,64,> 128,–
Cc1ccc(C[C@@]2(CNC(=O)c3ccccn3)CCC[C@]3(C)c4ccc(C(C)C)cc4CC[C@@H]23)cc1C,7.4,15.2,0,4.1,64,> 128,–
CC(C)c1ccc2c(c1)CC[C@H]1[C@@](CNC(=O)c3ccccn3)(Cc3ccc(F)cc3)CCC[C@]21C,1.2,0,0,1.7,4,32,–
COc1ccc(C[C@@]2(CNC(=O)c3ccccn3)CCC[C@]3(C)c4ccc(C(C)C)cc4CC[C@@H]23)cc1,48.6,22.2,4.5,4.9,64,> 128,–
CN[C@H](CC(C)C)C(=O)N[C@H]1C(=O)N[C@@H](CC(N)=O)C(=O)N[C@H]2C(=O)N[C@H]3C(=O)N[C@H](C(=O)N[C@H](C(=O)O)c4cc(O)cc(O)c4-c4cc3ccc4O)[C@H](O)c3ccc(c(Cl)c3)Oc3cc2cc(c3O[C@@H]2O[C@H](CO)[C@@H](O)[C@H](O)[C@H]2O[C@H]2C[C@](C)(N)[C@H](O)[C@H](C)O2)Oc2ccc(cc2Cl)[C@H]1O [VANCOMYCIN],–,–,–,–,128,–,–
CC(C)c1ccc2c(c1)CC[C@H]1[C@@](CNC(=O)c3ccccn3)(Cc3ccc(Cl)cc3)CCC[C@]21C,55.3,51.3,45.7,35,32,8,–
CC(C)c1ccc2c(c1)CC[C@H]1[C@@](CNC(=O)c3ccccn3)(Cc3ccc(Br)cc3)CCC[C@]21C,25.2,20.1,0,1.1,4,32,–
CC(C)c1ccc2c(c1)CC[C@H]1[C@@](CNC(=O)c3ccccn3)(Cc3ccccc3)CCC[C@]21C,1.9,12.4,3.8,2.5,32,> 128,–
COc1cccc(C[C@@]2(CNC(=O)c3ccccn3)CCC[C@]3(C)c4ccc(C(C)C)cc4CC[C@@H]23)c1,5.2,3.7,0,0,8,16,–
CC(C)c1ccc2c(c1)CC[C@H]1[C@@](CN)(Cc3ccc(C(F)(F)F)cc3)CCC[C@]21C,38.6,36.2,25.5,11.6,16,> 128,–
COc1ccccc1C[C@@]1(CNC(=O)c2ccccn2)CCC[C@]2(C)c3ccc(C(C)C)cc3CC[C@@H]12,46.2,20.6,0,3,32,> 128,–
O=C(O)c1cn(C2CC2)c2cc(N3CCNCC3)c(F)cc2c1=O [CIPROFLOXACIN],–,–,–,–,–,> 128,INH [3]: 1.11 ng/mL
CC(C)c1ccc2c(c1)CC[C@H]1[C@@](CNC(=O)c3ccccn3)(Cc3ccc(C(F)(F)F)cc3)CCC[C@]21C,16.3,1.1,0,1.7,64,64,–
COc1ccccc1C[C@@]1(CN)CCC[C@]2(C)c3ccc(C(C)C)cc3CC[C@@H]12,44.5,51.4,24.8,16.9,32,> 128,–
CC(C)c1ccc2c(c1)CC[C@H]1[C@@](CN)(Cc3ccc(Cl)cc3)CCC[C@]21C,80.6,47.3,25.9,20.2,0.125,8,INH [3]: 0.76 ng/mL; EC50 (Rhizoctonia solani [4]): 7.86 µg/mL
CC(C)c1ccc2c(c1)CC[C@H]1[C@@](CNC(=O)c3ccccn3)(Cc3cccc(C#N)c3)CCC[C@]21C,5.8,6.3,4.5,3,32,> 128,–
COc1ccc(C[C@@]2(CN)CCC[C@]3(C)c4ccc(C(C)C)cc4CC[C@@H]23)cc1,95.6,85.2,34.8,22.1,32,> 128,Activity (Rhizoctonia solani [2]): 76.9%; Activity (Rhizoctonia solani [5]): Active; Activity (Rhizoctonia solani [6]): Active; Activity (Rhizoctonia solani [7]): Active; Activity (Rhizoctonia solani [8]): Active; Activity (Rhizoctonia solani [9]): 27.7%; EC50 (Rhizoctonia solani [4]): 5.21 µg/mL; Activity (Rhizoctonia solani [10]): Active; Activity (Rhizoctonia solani [11]): Active; Activity (Rhizoctonia solani [12]): Active; Activity (Rhizoctonia solani [13]): Active; Activity (Rhizoctonia solani [14]): Active; Activity (Rhizoctonia solani [15]): Active
CC(C)c1ccc2c(c1)CC[C@H]1[C@@](CNC(=O)c3ccccn3)(Cc3ccc(N)cc3)CCC[C@]21C,28.5,5.6,3.5,4,32,32,–
O=C(Nc1ccccc1-c1ccc(Cl)cc1)c1cccnc1Cl [BOSCALID],80.2,90.1,32,49.5,–,–,EC50 (Rhizoctonia solani [4]): 1.57 µg/mL
CC(C)c1ccc2c(c1)CC[C@H]1[C@@](CNC(=O)c3ccccn3)(Cc3cccc(C(F)(F)F)c3)CCC[C@]21C,8.2,0,0,1,64,> 128,–
